Data published in patent US20260345543A1, “Bridged Bicyclic Compounds and their Derivatives as Antiepileptic Agents and Methods of Use Thereof” (Florida Atlantic University Board of Trustees, priority 2022, published 2026).

What was measured:
[1] = test system: unc-25 and unc-49 loss of function mutant C. elegans; details: unc-25 and unc-49 mutants; concentration not given; cited from earlier work
C. elegans (N2 worms) [2] = details: effect of PTZ application; concentration not given; cited from earlier work
C. elegans (N2 worms) [3] = experiment: C. elegans electroshock seizure assay (recovery time; with or without PTZ); assay type: in vivo; details: 3 mM (3000 μM); with PTZ; control AED
Description: FIG. 2 is a graph showing recovery time (seconds) for N2 worms (vertical axis) in the presence of M9 or pentylenetetrazol (PTZ) (first two bars). In other experiments, PTZ is combined with either an RVM or sodium valproate.
FIG. 3 left is the structure of RVM-3, and FIG. 3 right is a graph showing recovery time (seconds) for N2 worms (vertical axis) in the presence of M9 or PTZ (first two bars). In other experiments, PTZ is combined with RVM-3 at varying concentrations or sodium valproate.
The structures of these RVMs are comprised of an all-carbon bridged bicyclic scaffold that is fully saturated, a motif that is without precedent in the AED literature. […] It is expected that a pharmacological intervention based on RVMs will provide relief from epileptic events at low dosages.
The C. elegans seizure assay includes placing L4 C. elegans into a small tube that is capped on both sides by copper wires. A shock of 47 V for three seconds is then administered. […] Recovery is recorded when the animals present with coordinated three sinusoidal movements, which is then characterized as normal swimming activity. […]
This C. elegans assay offers a new model for the evaluation of electroconvulsive seizures (FIG. 4). […] Recovery is recorded when the animals present with three sinusoidal movements, which is then characterized as normal swimming activity. […]

Row | SMILES | sensitivity to electroshock when mutants are treated with antiepileptic drugs [1] | sensitivity to electroshock when mutants are additionally treated with PTZ [1] | seizure-like phenotypes seen in C. elegans (C. elegans (N2 worms) [2]) | restoration of recovery time (C. elegans (N2 worms) [3])
1 | CC[C@@H](C(N)=O)N1CCCC1=O [Keppra, levetiracetam] | increased sensitivity is rescued | – | – | –
2 | C1CCc2nnnn2CC1 [PTZ, Pentylenetetrazole] | – | sensitivity to electroshock is increased | enhances the seizure-like phenotypes | –
3 | CCOC(=O)Nc1ccc(NCc2ccc(F)cc2)cc1N [Retigabine] | increased sensitivity is rescued | – | – | –
4 | CCCC(CCC)C(=O)[O-].[Na+] [Sodium valproate, sodium valproate] | increased sensitivity is rescued | – | – | relatively modest restoration of recovery time
